For one series, the system named is HEK293 cells. As to conditions: for Cytotoxicity against HEK cells: 25 h.

Experimental findings from PMC7327142 (Biomolecules & Therapeutics, 2020) are described below.

With `O=C(CCCN1C(=O)c2ccccc2C1=O)Nc1ccc2ccccc2c1` [Compound 4, 4-(1,3-dioxo-1,3-dihydro-2H-isoindol-2-yl)-N-2-naphthylbutanamide], the “effect on growth and proliferation of HEK293 cells” value in the series on HEK293 cells was “decreased the cell numbers”. Further, the “Cytotoxicity against HEK cells” value in the series on HEK293 cells (20 µM) stood at 0.603.

As to `Cc1ccc(N2CC(C(=O)NCCS(=O)(=O)N3CCc4ccccc4C3)CC2=O)cc1` (stereo not shown) [Compound 75, N-(2-((3,4-dihydroisoquinolin-2(1H)-yl)sulfonyl)ethyl)-5-oxo-1-(p-tolyl)pyrrolidine-3-carboxamide], in the series on HEK293 cells (20 µM), the “Cytotoxicity against HEK cells” value is 0.604.

On to `COc1cccc(N2CC(C(=O)NCCS(=O)(=O)N3CCc4ccccc4C3)CC2=O)c1` (stereo not shown) [Compound 77, N-(2-((3,4-dihydroisoquinolin-2(1H)-yl)sulfonyl)ethyl)-1-(3-methoxyphenyl)-5-oxopyrrolidine-3-carboxamide], for which the “Cytotoxicity against HEK cells” value in the series with HEK293 cells (20 µM) was found to be 0.578.

As for `O=C(NCCS(=O)(=O)N1CCN(c2ccc(F)cc2)CC1)C1CC(=O)N(c2ccccc2)C1` (stereo not shown) [Compound 78, N-(2-((4-(4-fluorophenyl)piperazin-1-yl)sulfonyl)ethyl)-5-oxo-1-phenylpyrrolidine-3-carboxamide], the “Cytotoxicity against HEK cells” value in the series with HEK293 cells (20 µM) is reported as 0.574.

In the case of `Cn1cc(C(=O)N2CCN(CCOc3ccc(CN4CCC(Cc5ccccc5)CC4)cc3)CC2)c(=O)c2ccccc21` [Compound 58, 3-{[4-(2-{4-[(4-benzyl-1-piperidinyl)methyl]phenoxy}ethyl)-1-piperazinyl]carbonyl}-1-methyl-4(1H)-quinolinone], in the series on HEK293 cells (20 µM), the “Cytotoxicity against HEK cells” value amounted to 0.602.

In the case of `Cc1ccc(N2CC(C(=O)NCCS(=O)(=O)N3CCc4ccccc4C3)CC2=O)cc1C` (stereo not shown) [Compound 76, N-(2-((3,4-dihydroisoquinolin-2(1H)-yl)sulfonyl)ethyl)-1-(3,4-dimethylphenyl)-5-oxopyrrolidine-3-carboxamide], the “Cytotoxicity against HEK cells” value in the series with HEK293 cells (20 µM) worked out at 0.520.

Regarding `O=C(NCCS(=O)(=O)N1CCc2ccccc2C1)C1CC(=O)N(c2ccc(Cl)cc2)C1` (stereo not shown) [Compound 74, 1-(4-chlorophenyl)-N-(2-((3,4-dihydroisoquinolin-2(1H)-yl)sulfonyl)ethyl)-5-oxopyrrolidine-3-carboxamide], in the series on HEK293 cells (20 µM), the “Cytotoxicity against HEK cells” value is reported as 0.568. Further, in the series on Vero cells, the “cytotoxicity in Vero cells” value is reported as “no cytotoxicity” and the “growth of Vero cells” value is reported as “reduced the growth”.

As to `O=C(Nc1cccc(N2CCC(NCCC(c3ccc(F)cc3)c3ccco3)CC2)c1)c1ccncc1` (stereo not shown) [Compound 61, N-[3-(4-{[3-(4-fluorophenyl)-3-(2-furyl)propyl]amino}-1-piperidinyl)phenyl]isonicotinamide], the “Cytotoxicity against HEK cells” value in the series with HEK293 cells (20 µM) amounted to 0.173.

As for `COC(=O)c1c(NC(=O)C2CCCO2)c2cc(NCc3cccc(OCCO)c3)cnc2n1CCc1ccccc1` (stereo not shown) [Compound 69, methyl 5-{[3-(2-hydroxyethoxy)benzyl]amino}-1-(2-phenylethyl)-3-[(tetrahydro-2-furanylcarbonyl)amino]-1H-pyrrolo[2,3-b]pyridine-2-carboxylate], the “effect on growth and proliferation of HEK293 cells” value with HEK293 cells is listed as “decreased the cell numbers”. In addition, in the series with HEK293 cells (20 µM), the “morphological changes in HEK293 cells” value is listed as “slightly triggered cellular shrinking” and the “Cytotoxicity against HEK cells” value was found to be 0.529.

For `O=C(c1cc(-c2ccc(F)cc2)n[nH]1)N1CCC(Cc2ccc(CO)cc2)C1` (stereo not shown) [Compound 22, {4-[(1-{[3-(4-fluorophenyl)-1H-pyrazol-5-yl]carbonyl}pyrrolidin-3-yl)methyl]phenyl}methanol], the “Cytotoxicity against HEK cells” value in the series on HEK293 cells (20 µM) was determined as 0.596.

As to `O=C(CCCc1ccccc1)Nc1cccc(N2CCC(NCc3cccnc3)CC2)c1` [Compound 33, 4-phenyl-N-(3-{4-[(3-pyridinylmethyl)amino]-1-piperidinyl}phenyl)butanamide], the “Cytotoxicity against HEK cells” value with HEK293 cells (20 µM) is 0.588.

`CN(Cc1ccc(OCCN2CCN(C(=O)C3Cc4ccccc4O3)CC2)cc1)Cc1ccc2ncccc2c1` (stereo not shown) [Compound 60, (4-{2-[4-(2,3-dihydro-1-benzofuran-2-ylcarbonyl)-1-piperazinyl]ethoxy}benzyl)methyl(6-quinolinylmethyl)amine]: the “Cytotoxicity against HEK cells” value in the series with HEK293 cells (20 µM) is reported as 0.572.

Regarding `COCc1ccc(C(=O)NCc2nc(-c3cccc(NC(=O)C4CCCN(C)C4)c3)oc2C)s1` (stereo not shown) [Compound 26, N-(3-{4-[({[5-(methoxymethyl)-2-thienyl]carbonyl}amino)methyl]-5-methyl-1,3-oxazol-2-yl}phenyl)-1-methyl-3-piperidinecarboxamide], the “Cytotoxicity against HEK cells” value in the series on HEK293 cells (20 µM) was 0.587.

On to `CC(C)(O)C#Cc1ccc(C(=O)N2CCCC(CCC(=O)NCc3ccccc3F)C2)cc1` (stereo not shown) [Compound 35, N-(2-fluorobenzyl)-3-{1-[4-(3-hydroxy-3-methyl-1-butyn-1-yl)benzoyl]-3-piperidinyl}propanamide], for which the “Cytotoxicity against HEK cells” value in the series on HEK293 cells (20 µM) turned out to be 0.580.

As for `O=C(C1CCCN(c2cccc3c2C(=O)N(Cc2ccsc2)C3=O)C1)N1CCC(O)(c2cccc(C(F)(F)F)c2)CC1` (stereo not shown) [Compound 73, 4-[3-({4-hydroxy-4-[3-(trifluoromethyl)phenyl]-1-piperidinyl}carbonyl)-1-piperidinyl]-2-(3-thienylmethyl)-1H-isoindole-1,3(2H)-dione], the “Cytotoxicity against HEK cells” value in the series on HEK293 cells (20 µM) was determined as 0.602. Moreover, in the series with Vero cells, the “cytotoxicity in Vero cells” value is listed as “no cytotoxicity” and the “growth of Vero cells” value is “reduced the growth”.
